Here are results for two compounds from patent US6441195B1, “Substituted sulphonylamino(thio) carbonyl compounds” (Bayer Aktiengesellschaft, priority 1995, dated 2002).

Common to all, as to type: in vivo
One series relates to Solanum. The series is described as follows: Pre-emergence test/Greenhouse, Solanum. The following applies: after three weeks. The method in brief:
(§1)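 Percent damage relative to untreated control plants, scored three weeks after treatment, is the read-out (0% meaning no effect). Treatment consisted of watering the soil with an emulsified aqueous preparation roughly 24 h after seeds were sown, at constant water volume per area.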

In series [1] the test system is Maize. The series is described as follows: Post-emergence test/greenhouse, Maize. Particulars: greenhouse, after three weeks. The protocol:
Solvent: 5 parts by weight of acetone
Emulsifier: 1 part by weight of alkylaryl polyglycol ether
To produce a suitable preparation of active compound, 1 part by weight of active compound is mixed with the stated amount of solvent, the stated amount of emulsifier is added and the concentrate is diluted with water to the desired concentration.
Test plants which have a height of 5-15 cm are sprayed with the preparation of the active compound in such a way as to apply the particular amounts of active compound desired per unit area. The concentration of the spray liquor is chosen so that the particular amounts of active compound desired are applied in 2000 l of water/ha.
After three weeks, the degree of damage to the plants is rated in % damage in comparison to the development of the untreated control.
0%=no action (like untreated control)

The test system of series [2] is Lolium. The series is described as follows: Post-emergence test/greenhouse, Lolium. The following applies: greenhouse, after three weeks. Summed up: (§2)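 Post-emergence spray of plants 5-15 cm tall at the desired rate in 2000 l water/ha; active compound formulated in acetone with alkylaryl polyglycol ether emulsifier, diluted in water. Damage rated after three weeks as % versus untreated control (0% = no action).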

In series [3] the test system is Maize. As to the kind of experiment: Pre-emergence test/Greenhouse, Maize. Particulars: in vivo. The method in brief:
as §1

Another series concerns Soya beans. The series is described as follows: Pre-emergence test/Greenhouse, Soya beans. The following applies: in vivo. Summed up:
as §1

The subject of series [4] is Sorghum. The series is described as follows: Pre-emergence test/Greenhouse, Sorghum. The following applies: after three weeks. Summed up:
as §1

A further series relates to Digitaria. As to the kind of experiment: Post-emergence test/greenhouse, Digitaria. The following applies: greenhouse, after three weeks. The method in brief:
as §2

Series [5] deals with weeds. As to the kind of experiment: Post-emergence test (greenhouse), activity against weeds. The following applies: in words. Summed up: as §2
The subject of series [6] is Sorghum. The series is described as follows: Post-emergence test/greenhouse, Sorghum. Particulars: greenhouse, after three weeks. The method in brief:
as §2

In the next series the test system is Amaranthus. As to the kind of experiment: Post-emergence test/greenhouse, Amaranthus. Particulars: greenhouse, after three weeks. Summed up: as §2
The next series relates to Echinochloa. As to the kind of experiment: Post-emergence test/greenhouse, Echinochloa. Particulars: greenhouse, after three weeks. The method in brief: as §2
The test system of series [7] is weeds. As to the kind of experiment: Pre-emergence test (greenhouse), activity against weeds. Particulars: in words. Summed up: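 Compound formulated in acetone with alkylaryl polyglycol ether emulsifier, diluted in water, and watered onto soil about 24 h after sowing, dosed by application rate per unit area. Damage rated after three weeks as % versus untreated control (0% = no action).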

Series [8] concerns Matricaria. The series is described as follows: Pre-emergence test/Greenhouse, Matricaria. Particulars: after three weeks. The method in brief: as §1
The subject of the next series is Stellaria. The series is described as follows: Post-emergence test/greenhouse, Stellaria. The following applies: greenhouse, after three weeks. The method in brief: as §2
The test system of the next series is Gallium. The series is described as follows: Post-emergence test/greenhouse, Gallium. The following applies: greenhouse, after three weeks. The method in brief: as §2
Series [9] deals with Matricaria. As to the kind of experiment: Post-emergence test/greenhouse, Matricaria. The following applies: greenhouse, after three weeks. The method in brief:
as §2

The next series has as its system Ambrosia. The series is described as follows: Pre-emergence test/Greenhouse, Ambrosia. The following applies: after three weeks. Summed up:
as §1

In series [10] the test system is Lolium. As to the kind of experiment: Pre-emergence test/Greenhouse, Lolium. Particulars: after three weeks. Summed up:
as §1

In another series the test system is Poa. As to the kind of experiment: Pre-emergence test/Greenhouse, Poa. The following applies: after three weeks. Summed up:
as §1

Consider `COC(=O)c1cccc(C)c1S(=O)(=O)NC(=O)n1nc(SCCF)n(C2CC2)c1=O` [Example 151], for which, in the series with Solanum (15 g of ai./ha), the “degree of damage to the plants (% damage vs untreated control), Solanum” value turned out to be 90%. Further, the “degree of damage, Maize” value with Maize [1] (30 g of ai./ha) turned out to be 60%. The “degree of damage, Lolium” value in the series with Lolium [2] (30 g of ai./ha) is reported as 60%. In addition, the “degree of damage to the plants (% damage vs untreated control), Maize” value in the series on Maize [3] stood at 20%. Besides, the “degree of damage to the plants (% damage vs untreated control), Soya beans” value in the series on Soya beans is 10%. Also, the “degree of damage to the plants (% damage vs untreated control), Sorghum” value in the series on Sorghum [4] (15 g of ai./ha) came out at 50%. For the same compound, the “degree of damage, Digitaria” value in the series on Digitaria (30 g of ai./ha) came out at 90%. Also, the activity against weeds entry in the series on weeds [5] and in the series on weeds [7] was “very strong activity against weeds” each time. For the same compound, the “degree of damage, Sorghum” value in the series with Sorghum [6] (30 g of ai./ha) amounted to 90%. In the series with Amaranthus (30 g of ai./ha), the “degree of damage, Amaranthus” value was determined as 95%. The “degree of damage, Echinochloa” value with Echinochloa (30 g of ai./ha) came to 70%. In the series with Matricaria [8] (15 g of ai./ha), the “degree of damage to the plants (% damage vs untreated control), Matricaria” value was found to be 90%. Further, in the series with Stellaria (30 g of ai./ha), the “degree of damage, Stellaria” value came out at 90%. For the same compound, in the series with Gallium (30 g of ai./ha), the “degree of damage, Gallium” value was 90%. In the series with Matricaria [9] (30 g of ai./ha), the “degree of damage, Matricaria” value stood at 90%. Moreover, in the series on Ambrosia (15 g of ai./ha), the “degree of damage to the plants (% damage vs untreated control), Ambrosia” value is 80%. The “degree of damage to the plants (% damage vs untreated control), Lolium” value in the series with Lolium [10] (15 g of ai./ha) came out at 90%. In addition, in the series with Poa (15 g of ai./ha), the “degree of damage to the plants (% damage vs untreated control), Poa” value is on record as 90%.
Turning to `COCc1nn(C(=O)NS(=O)(=O)c2c(C)csc2C(=O)OC)c(=O)n1C` [Example 32], the “degree of damage to the plants (% damage vs untreated control), Solanum” value in the series with Solanum (60 g of ai./ha) was 95%. The “degree of damage, Maize” value with Maize [1] (60 g of ai./ha) is 70%. In the series on Lolium [2] (60 g of ai./ha), the “degree of damage, Lolium” value came out at 70%. Moreover, in the series on Maize [3], the “degree of damage to the plants (% damage vs untreated control), Maize” value is given as 20%. The “degree of damage to the plants (% damage vs untreated control), Soya beans” value in the series on Soya beans stood at 20%. Further, the “degree of damage to the plants (% damage vs untreated control), Sorghum” value with Sorghum [4] (60 g of ai./ha) was 60%. Further, the “degree of damage, Digitaria” value with Digitaria (60 g of ai./ha) amounted to 70%. Also, the activity against weeds result in the series on weeds [5] and in the series with weeds [7] was “very strong activity against weeds” each time. Also, in the series with Sorghum [6] (60 g of ai./ha), the “degree of damage, Sorghum” value stood at 95%. For the same compound, the “degree of damage, Amaranthus” value in the series with Amaranthus (60 g of ai./ha) turned out to be 95%. Also, the “degree of damage, Echinochloa” value with Echinochloa (60 g of ai./ha) is 100%. The “degree of damage to the plants (% damage vs untreated control), Matricaria” value in the series on Matricaria [8] (60 g of ai./ha) was 95%. Besides, in the series on Stellaria (60 g of ai./ha), the “degree of damage, Stellaria” value worked out at 90%. The “degree of damage, Gallium” value with Gallium (60 g of ai./ha) was determined as 70%. For the same compound, the “degree of damage, Matricaria” value with Matricaria [9] (60 g of ai./ha) amounted to 80%. Moreover, the “degree of damage to the plants (% damage vs untreated control), Ambrosia” value in the series on Ambrosia (60 g of ai./ha) came to 95%. In addition, in the series on Lolium [10] (60 g of ai./ha), the “degree of damage to the plants (% damage vs untreated control), Lolium” value was 95%. In addition, in the series with Poa (60 g of ai./ha), the “degree of damage to the plants (% damage vs untreated control), Poa” value came to 95%.
